Test results as given in patent US20090136472A1, “Use of thiazole derivatives and analogues in disorders caused by free fatty acids” (priority 2005, published 2009).

Key:
MDA-MB-231 cells = assay: Test A cell proliferation assay (FFA/linolenic acid-stimulated, cell cycle analysis by flow cytometry); type: cell-based, human; details: 24 hours; for inhibition at 10 µM: Homo sapiens, at a concentration of 10 μM, cells in S-phase, read-out: percentage antagonist activity (inhibition of FFA induced cell proliferation); for inhibition at 10 µM / antagonism of free fatty acid stimulated cell proliferation: linolenic acid-stimulated MDA-MB-231 cells; for antagonism of free fatty acid stimulated cell proliferation: S-phase by propidium iodine staining
Method: Cytomics™ FC500 Flow Cytometer with CXP software (Beckman Coulter) MDA-MB-231 cells MDA-MB-231 cells were cultured in the propagation media D-MEM+1000 mg/L Glucose+GlutaMAX™ 1+Pyruvate supplemented with 10% V/V Foetal Bovine Serum and PEST (100 U/ml penicillin, 100 μg/mL streptomycin). Cells were seeded in 6 well plates to a density of 300000 cells/well in propagation media. After 24 hours, media was replaced with serum free D-MEM media.
Linolenic acid was diluted in DMSO to a concentration of 100 mM and added to the culture media to a final concentration of 100 μM.
Compounds were as dissolved in DMSO to a concentrations of 10 mM (Compounds of Examples 95 and 6 (Compound X and Compound Y, respectively)) and 40 mM (Compound of Example 4 (Compound Z)) and added to the culture media to a final concentration of 10 μM (X and Y) and 40 μM (Z) respectively.
After 24 hours in serum free media DMEM, linolenic acid (to a final concentration of […]) and compounds to be screened for activity were added to a final concentration of 10 μM (Compounds X and Y) and 40 μM (Compound Z) respectively. Final DMSO concentration was kept at 0.2% in all wells. After 24 hours of stimulation, cells were harvested and propidium iodine stained using a CyStain PI absolute T Kit according to manufacturer's recommendations. Cells were subsequently analyzed using a Cytomics™ FC500 Flow Cytometer with CXP software (Beckman Coulter) for cell cycle distribution. Cells were incubated with or without linolenic acid (LA) and the Compounds X, Y and Z for 24 hours at indicated concentrations. Cells in S-phase from untreated sample were set to 100% in each experiment.

Ob/Ob mice = assay: Test B insulin measurement study in diabetic Ob/Ob mice; type: in vivo; details: 1 mg/kg intraperitoneally once daily for 2 weeks
Method: Ultra sensitive rat insulin ELISA kit (Crystal Chen inc) according to manufacturer's recommendations.
Serum insulin measurements on 4 hour fasted 8-9 week old Ob/Ob mice (Taconic) were performed. Mice were distributed to a vehicle control group (VC) or a Compound Z treatment group, so that mean s-insulin was equal between the groups. 1 mg/kg bodyweight of Compound Z in PBS/1% v/v DMSO and VC groups were injected intraperitoneally once daily for 2 weeks, after which 4 hour fasted serum insulin levels were measured as described above.

SMILES | inhibition at 10 µM (MDA-MB-231 cells) [%] | antagonism of free fatty acid stimulated cell proliferation (MDA-MB-231 cells) | hyperinsulinemia (4 hour fasted serum insulin level) (Ob/Ob mice) | effect on the basal proliferation of MDA-MB-231 cells (MDA-MB-231 cells; Compound X 10 μM without linolenic acid)
O=C1NC(=Nc2ccc(Cl)cc2)SC1Cc1cccc(C(F)(F)F)c1 (centres unmarked) [Compound Y, 5-(3-(Trifluoromethyl)benzyl)-2-(4-chlorophenylimino)thiazolidin-4-one] | 100 | able to antagonize free fatty acid stimulated cell proliferation | – | –
Cc1ccc(N=C2NC(=O)C(Cc3cccc(C(F)(F)F)c3)S2)cc1 (centres unmarked) [Compound Z, 5-(3-(Trifluoromethyl)benzyl)-2-(p-tolylimino)thiazolidin-4-one] | 50 | able to antagonize free fatty acid stimulated cell proliferation | attenuated hyperinsulinemia | –
O=C1NC(=Nc2ccccn2)SC1Cc1ccc(F)cc1 (centres unmarked) [Compound X, 5-(4-Fluorobenzyl)-2-(pyridin-2-ylimino)thiazolidin-4-one] | 70 | able to antagonize free fatty acid stimulated cell proliferation | – | did not exhibit any detectable effect
